Test results taken from patent US20060014785A1, “BICYCLIC, SUBSTITUTED TRIAZOLES AS MODULATORS OF PPAR AND METHODS OF THEIR PREPARATION” (Metabolex, Inc., priority 2004, published 2006).

Key:
Type in all cases: cell-based
mouse PPAR α = molecular target: T1, mouse PPAR α (Mus musculus, UniProt P23204); test: PPAR alpha transactivation (GAL4 chimeric receptor luciferase reporter) assay; settings: pFR-Luc reporter, HEK293T cells, 20 hours incubation, read-out: Gene Activation Assay: EC50 (<10 μM) PPAR alpha
T1 construct: expressed in transfected cells; host or cells: HEK293T
T1 sequence (P23204 239-466 limits assumed): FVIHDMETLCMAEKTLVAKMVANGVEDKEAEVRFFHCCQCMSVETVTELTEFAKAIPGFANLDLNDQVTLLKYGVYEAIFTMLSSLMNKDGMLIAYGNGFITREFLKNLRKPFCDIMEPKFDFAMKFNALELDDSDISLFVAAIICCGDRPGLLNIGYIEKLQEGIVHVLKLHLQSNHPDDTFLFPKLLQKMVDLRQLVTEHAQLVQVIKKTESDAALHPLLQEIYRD
Text: (§1) Measurement of PPARγ, δ, and α Transactivation Activity.
(§2) Chimeric receptors were constructed in which the yeast transcription factor GAL4 DNA binding domain was fused to the ligand binding domain of either mouse PPARγ, mouse PPARδ or mouse PPAR α in order to assess the ability of the compounds of the present invention to activate gene expression in a PPAR-dependent manner. The chimeric receptor expression plasmids (GAL4-mPPARγ, GAL4-mPPAR δ and GAL4-PPAR α) and the reporter plasmid containing 5×GAL4 binding site (pFR-Luc, obtained from Stratagene) were transfected into HEK293T cells using the Lipofectamine 2000 reagent (Invitrogen), according to the manufacturers instructions. Six hours after transfection, the culture medium was renewed and the cells were incubated for 20 hours in presence of either 1) DMSO (vehicle), 2) a compound of the invention or 3) a reference compound for comparison. Rosiglitazone (obtained from WDF Pharma) was used as a reference compound for the PPARγassay; GW501516 (prepared as described in Sznaidman et al. Bioorg. Med. Chem. Lett. (2003) 13:1517-1521) was used as a reference compound for the PPAR δ assay and GW7647 (obtained from Sigma) was used as a reference compound for the PPAR α assay. Luciferase activity was measured as a reporter of gene expression. Luciferase activity on the cell lysates using the Steady-Glo reagent was measured according to the manufacturers instructions.

mouse PPARδ = molecular target: T2, mouse PPARδ (Mus musculus, UniProt P35396); test: PPAR delta transactivation (GAL4 chimeric receptor luciferase reporter) assay; settings: GAL4-mPPAR δ chimeric receptor, pFR-Luc reporter, HEK293T cells, 20 hours incubation; read-out: Gene Activation Assay: EC50 (<10 μM) PPAR delta
T2 construct: expressed in transfected cells; host or cells: HEK293T
T2 sequence (P35396 210-438 limits assumed): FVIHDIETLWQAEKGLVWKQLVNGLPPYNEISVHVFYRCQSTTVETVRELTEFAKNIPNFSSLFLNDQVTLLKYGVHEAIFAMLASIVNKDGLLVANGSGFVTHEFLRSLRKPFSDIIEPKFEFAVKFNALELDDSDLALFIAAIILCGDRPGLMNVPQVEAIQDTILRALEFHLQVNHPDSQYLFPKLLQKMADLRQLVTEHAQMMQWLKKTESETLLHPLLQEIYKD
Text: as §1, §2

mouse PPARγ = molecular target: T3, mouse PPARγ (Mus musculus, UniProt P37238); test: PPAR gamma transactivation (GAL4 chimeric receptor luciferase reporter) assay; settings: GAL4-mPPARγ chimeric receptor, pFR-Luc reporter, HEK293T cells, 20 hours incubation; read-out: Gene Activation Assay: EC50 (<10 μM) PPAR gamma
T3 construct: expressed in transfected cells; host or cells: HEK293T
T3 sequence (P37238 238-503 limits assumed): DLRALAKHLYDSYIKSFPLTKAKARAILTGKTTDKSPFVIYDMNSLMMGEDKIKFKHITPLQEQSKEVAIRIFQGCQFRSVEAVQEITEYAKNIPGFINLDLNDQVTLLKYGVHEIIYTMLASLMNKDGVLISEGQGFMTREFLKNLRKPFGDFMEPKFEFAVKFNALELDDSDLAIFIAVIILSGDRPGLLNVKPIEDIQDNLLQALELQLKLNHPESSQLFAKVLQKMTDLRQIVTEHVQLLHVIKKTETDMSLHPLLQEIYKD
Text: as §1, §2

Row | SMILES | EC50 (mouse PPAR α) | EC50 (mouse PPARδ) | EC50 (mouse PPARγ)
1 | Cc1nn(-c2ccc(C(F)(F)F)cc2)nc1COc1ccc2c(c1)OCC2CC(=O)O (stereo not drawn) [Compound 700, {6-[5-Methyl-2-(4-trifluoromethyl-phenyl)-2H-[1,2,3]triazol-4-ylmethoxy]-2,3-dihydro-benzofuran-3-yl}-acetic acid] | > 10 µM | < 10 µM | > 30 µM
2 | Cc1nn(-c2ccc(C(F)(F)F)cc2)nc1COc1ccc2c(ccn2CC(=O)O)c1 [Compound 20, {5-[5-Methyl-2-(4-trifluoromethyl-phenyl)-2H-[1,2,3]triazol-4-ylmethoxy]-indol-1-yl}-acetic acid] | > 10 µM | < 10 µM | > 30 µM
3 | Cc1nn(-c2ccc(C(F)(F)F)cc2)nc1COc1ccc2ccn(CC(=O)O)c2c1 [Compound 130, {6-[5-Methyl-2-(4-trifluoromethyl-phenyl)-2H-[1,2,3]triazol-4-ylmethoxy]-indol-1-yl}-acetic acid] | < 10 µM | < 10 µM | < 10 µM
4 | Cc1nn(-c2ccc(C(F)(F)F)cc2)nc1COc1ccc2c(CC(=O)O)coc2c1 [Compound 160, {6-[5-Methyl-2-(4-trifluoromethyl-phenyl)-2H-[1,2,3]triazol-4-ylmethoxy]-benzofuran-3-yl}-acetic acid] | > 10 µM | < 10 µM | > 10 µM
